Results on 21 compounds are retold here after patent US20250195530A1, “POLQ INHIBITORS” (ASTRAZENECA AB, priority 2022, published 2025).

Like-named read-outs stand apart in the source and are kept apart here.

One assay relates to DLD-1 cells. Put plainly: Inhibition of proliferation, DLD-1 BRCA2 wt control (Cell Titre Glo 3D). It counts as cell-based. As to conditions: for IC50: Homo sapiens. A digest of the protocol:
(§1)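 Wild-type DLD-1 serves as the control for non-specific toxicity, and BRCA2-null DLD-1 as the homologous-recombination-deficient line. Both grew with compound from 10 μM down to 0.51 nM, re-dosed after 6 days. Luminescent ATP content (CellTiter-Glo 3D) was read after 7 or 12 days, respectively, to give IC50 values.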

The subject of another assay is DLD-1 BRCA2−/− cells. Put plainly: Homologous recombination synthetic lethal inhibition of proliferation, DLD-1 BRCA2-/- (Cell Titre Glo 3D). As to conditions: for IC50: Homo sapiens. Type of assay: cell-based. A digest of the protocol:
as §1

The mark [1] stands for this setting: DLD-1, DLD-1 BRCA2 wt control proliferation, column head only partly shown, read-out: POLQ PD Prolif Lumin (converted).
Setting [2] is: DLD-1, DLD-1 BRCA2-/- proliferation, column head only partly shown, read-out: POLQ PD Prolif Lumin (converted).
[3] abbreviates: DLD-1, second proliferation column (c6), DLD-1 BRCA2 wt control, read-out: POLQ PD Prolif Lumin (converted).
Where [4] appears, read: DLD-1, first proliferation column (c5), DLD-1 BRCA2-/-, read-out: POLQ PD Prolif Lumin (converted).
Setting [5] is: DLD-1, 168 h, DLD-1 BRCA2 wt cells, 7 days, read-out: POLQ PD Prolif Lumin DLD1 mean pIC50 (converted).
Setting [6] is: DLD-1, 288 h, DLD-1 BRCA2−/− cells, 12 days, read-out: POLQ PD Prolif Lumin BRCA2 −/− mean pIC50 (converted).

In the case of `COc1ccc(Cl)cc1Cn1c(-c2cccc(OC[C@@H](C)CC(=O)O)c2Cl)nc2c(OC3(C)CC3)ncnc21` (single isomer, unassigned; isomer 1) [Example 50, 4-(2-Chloro-3-(9-(5-chloro-2-methoxybenzyl)-6-(1-methylcyclopropoxy)-9H-purin-8-yl)phenoxy)-3-methylbutanoic acid (isomer 1)], the IC50 with DLD-1 cells (DLD-1, 168 h, DLD-1 (BRCA2 wt control), 7 days, Cell Titre Glo 3D, read-out: POLQ PD Prolif Lumin DLD1 Mean pIC50 (converted)) was above 10000 nM; with DLD-1 BRCA2−/− cells (DLD-1, 288 h, DLD-1 BRCA2−/−, 12 days, Cell Titre Glo 3D, read-out: POLQ PD Prolif Lumin BRCA2 −/− Mean pIC50 (converted)), 6.31 nM.

For the compound `CC(CCOc1ccc(-c2nc3c(OC4(C)CC4)ncnc3n2Cc2cc(Cl)ccc2Cl)c(Cl)c1)C(=O)O` (racemic) [Example T276, 4-(3-chloro-4-(9-(2,5-dichlorobenzyl)-6-(1-methylcyclopropoxy)-9H-purin-8-yl)phenoxy)-2-methylbutanoic acid], the values for the IC50 with DLD-1 cells (setting [1]) and with DLD-1 BRCA2−/− cells (setting [2]) were above 10000 nM and 63.1 nM, respectively.

Take `CC1(Oc2ncnc3c2nc(-c2ccc(OCCCN4CC[C@@H](O)C4)cc2Cl)n3Cc2cc(Cl)ccn2)CC1` [Example T502, (R)-1-(3-(3-chloro-4-(9-((4-chloropyridin-2-yl)methyl)-6-(1-methylcyclopropoxy)-9H-purin-8-yl)phenoxy)propyl)pyrrolidin-3-ol]: the IC50 with DLD-1 cells (setting [3]) was above 7940 nM; in the assay on DLD-1 BRCA2−/− cells (setting [4]), 126 nM.

Turning to `Cc1cnc(Cn2c(-c3ccc(OCCCN4CC(O)C4)cc3Cl)nc3c(OC4(C)CC4)ncnc32)s1` [Example T244, 1-(3-(3-chloro-4-(6-(1-methylcyclopropoxy)-9-((5-methylthiazol-2-yl)methyl)-9H-purin-8-yl)phenoxy)propyl)azetidin-3-ol], the IC50 in the assay on DLD-1 cells (setting [1]) was above 7940 nM; in the assay on DLD-1 BRCA2−/− cells (setting [2]) it was 501 nM.

In the case of `Cc1ccnc(Cn2c(-c3ccc(OCCCN4CC(O)C4)cc3Cl)nc3c(OC4(C)CC4)ncnc32)c1` [Example T513, 1-(3-(3-chloro-4-(6-(1-methylcyclopropoxy)-9-((4-methylpyridin-2-yl)methyl)-9H-purin-8-yl)phenoxy)propyl)azetidin-3-ol], the figures for the IC50 in the assay with DLD-1 cells (setting [3]) and in the assay on DLD-1 BRCA2−/− cells (setting [4]) were above 10000 nM and 316 nM, respectively.

Take `CC(CCOc1ccc(-c2nc3c(OC4(C)CC4)ncnc3n2Cc2cccc(C(C)(F)F)c2)c(Cl)c1)C(=O)O` (racemic) [Example T544, 4-(3-chloro-4-(9-(3-(1,1-difluoroethyl)benzyl)-6-(1-methylcyclopropoxy)-9H-purin-8-yl)phenoxy)-2-methylbutanoic acid]: the values for the IC50 in the assay on DLD-1 cells (setting [3]) and in the assay on DLD-1 BRCA2−/− cells (setting [4]) were above 10000 nM and 501 nM, respectively.

In the case of `COc1ncccc1-c1nc2c(OC3(C)CC3)ncnc2n1Cc1ccccc1` [Example N9, 9-benzyl-8-(2-methoxypyridin-3-yl)-6-(1-methylcyclopropoxy)-9H-purine], the IC50 with DLD-1 cells (setting [5]) is above 10000 nM; in the assay on DLD-1 BRCA2−/− cells (setting [6]), 1260 nM.

Take `CC1(Oc2ncnc3c2nc(-c2ccc(OCCN4CCNCC4)cc2Cl)n3Cc2cccc(Cl)n2)CC1` [Example 23, 8-(2-chloro-4-(2-(piperazin-1-yl)ethoxy)phenyl)-9-((6-chloropyridin-2-yl)methyl)-6-(1-methylcyclopropoxy)-9H-purine]: the IC50 is above 10000 nM in the assay with DLD-1 cells (setting [5]) and 631 nM in the assay on DLD-1 BRCA2−/− cells (setting [6]).

Turning to `C[C@H](CCOc1cccc(-c2nc3c(OC4(C)CC4)ncnc3n2Cc2cc(Cl)ccc2C#N)c1Cl)C(=O)O` [Example U95, (R)-4-(2-chloro-3-(9-(5-chloro-2-cyanobenzyl)-6-(1-methylcyclopropoxy)-9H-purin-8-yl)phenoxy)-2-methylbutanoic acid], the IC50 was above 10000 nM in the assay on DLD-1 cells (DLD-1, DLD1 BRCA2 wt, mean, read-out: POLQ PD Prolif Lumin DLD1 mean pIC50 (converted)) and 2 nM in the assay on DLD-1 BRCA2−/− cells (DLD-1, DLD-1 BRCA2 −/−, mean, read-out: POLQ PD Prolif Lumin BRCA2 −/− mean pIC50 (converted)).

Regarding `CN(CCOc1ccc(-c2nc3c(OC4(C)CC4)ncnc3n2Cc2ccccc2)c(Cl)c1)CC(=O)O` [Example D30, N-(2-(4-(9-benzyl-6-(1-methylcyclopropoxy)-9H-purin-8-yl)-3-chlorophenoxy)ethyl)-N-methylglycine], the IC50 in the assay on DLD-1 cells (setting [5]) was above 10000 nM; with DLD-1 BRCA2−/− cells (setting [6]) it was 1260 nM.

`CC1(Oc2ncnc3c2nc(-c2ccc(OCCCN4CC(O)C4)cc2Cl)n3Cc2cc(Cl)ccn2)CC1` [Example T347, 1-(3-(3-chloro-4-(9-((4-chloropyridin-2-yl)methyl)-6-(1-methylcyclopropoxy)-9H-purin-8-yl)phenoxy)propyl)azetidin-3-ol]: the IC50 in the assay with DLD-1 cells (DLD-1, second proliferation column (c6), taken as DLD-1 BRCA2 wt, read-out: POLQ PD Prolif Lumin (converted)) was above 7940 nM; in the assay with DLD-1 BRCA2−/− cells (DLD-1, first proliferation column (c5), taken as DLD-1 BRCA2-/-, read-out: POLQ PD Prolif Lumin (converted)) it was 158 nM.

Regarding `CNCCOc1ccc(-c2nc3c(OC4(C)CC4)ncnc3n2Cc2ncc(C)s2)c(Cl)c1` [Example T34, 2-(3-chloro-4-(6-(1-methylcyclopropoxy)-9-((5-methylthiazol-2-yl)methyl)-9H-purin-8-yl)phenoxy)-N-methylethan-1-amine], the IC50 was above 10000 nM in the assay on DLD-1 cells (DLD-1, DLD1 BRCA2 wt cells, mean, read-out: POLQ PD Prolif Lumin DLD1 mean PIC50 (converted)) and 501 nM with DLD-1 BRCA2−/− cells (DLD-1, DLD-1 BRCA2 −/− cells, mean, read-out: POLQ PD Prolif Lumin BRCA2 −/− mean pIC50 (converted)).

`Cc1ccnc(Cn2c(-c3cccc(OCCCN4CC[C@@H](O)C4)c3Cl)nc3c(OC4(C)CC4)ncnc32)c1` [Example T593, (R)-1-(3-(2-chloro-3-(6-(1-methylcyclopropoxy)-9-((4-methylpyridin-2-yl)methyl)-9H-purin-8-yl)phenoxy)propyl)pyrrolidin-3-ol]: the IC50 is above 10000 nM in the assay on DLD-1 cells (DLD-1, second proliferation column, DLD-1 BRCA2 wt control, read-out: POLQ PD Prolif Lumin (converted)) and 251 nM in the assay on DLD-1 BRCA2−/− cells (DLD-1, first proliferation column, DLD-1 BRCA2-/-, read-out: POLQ PD Prolif Lumin (converted)).

In the case of `Cc1cnc(Cn2c(-c3ccc(O[C@H]4CCN(C)C4)cc3Cl)nc3c(OC4(C)CC4)ncnc32)s1` [Example T140, (S)-2-((8-(2-chloro-4-((1-methylpyrrolidin-3-yl)oxy)phenyl)-6-(1-methylcyclopropoxy)-9H-purin-9-yl)methyl)-5-methylthiazole], the IC50 is above 10000 nM in the assay on DLD-1 cells (setting [3]) and 251 nM with DLD-1 BRCA2−/− cells (setting [4]).

As for `COc1cccnc1Cn1c(-c2ccc(OCCN3CCNCC3)cc2Cl)nc2c(OC3(C)CC3)ncnc21` [Example L10, 8-(2-chloro-4-(2-(piperazin-1-yl)ethoxy)phenyl)-9-((3-methoxypyridin-2-yl)methyl)-6-(1-methylcyclopropoxy)-9H-purine], the IC50 in the assay with DLD-1 cells (setting [5]) was above 10000 nM; in the assay on DLD-1 BRCA2−/− cells (setting [6]) it was 3160 nM.

As for `Cc1cc(OCCCN(C)C)ncc1-c1nc2c(OC3(C)CC3)ncnc2n1Cc1ccccc1` [Example G2, 3-((5-(9-benzyl-6-(1-methylcyclopropoxy)-9H-purin-8-yl)-4-methylpyridin-2-yl)oxy)-N,N-dimethylpropan-1-amine], the IC50 was above 10000 nM with DLD-1 cells (setting [5]) and 1000 nM in the assay with DLD-1 BRCA2−/− cells (setting [6]).

Regarding `CC1(Oc2ncnc3c2nc(-c2ccc(OC4CNC4)cc2Cl)n3Cc2ccccc2)CC1` [Example D35, 8-(4-(azetidin-3-yloxy)-2-chlorophenyl)-9-benzyl-6-(1-methylcyclopropoxy)-9H-purine], the figures for the IC50 in the assay on DLD-1 cells (setting [5]) and in the assay with DLD-1 BRCA2−/− cells (setting [6]) were 3980 nM and 501 nM, respectively.

With `COc1ccc(Cl)cc1Cn1c(-c2cccc(O[C@H]3CC[C@H](C(=O)O)CC3)c2Cl)nc2c(OC3(C)CC3)ncnc21` [Example U38, (1r,4r)-4-(2-chloro-3-(9-(5-chloro-2-methoxybenzyl)-6-(1-methylcyclopropoxy)-9H-purin-8-yl)phenoxy)cyclohexane-1-carboxylic acid], the “POLQ PD Prolif Lumin DLD1 mean pIC50” value in the assay with DLD-1 cells (DLD1 BRCA2 wt, mean) came to 5.1. Further, the “POLQ PD Prolif Lumin BRCA2 −/− mean pIC50” value in the assay with DLD-1 BRCA2−/− cells (DLD-1 BRCA2 −/−, mean) is given as 7.5.

In the case of `CC1(Oc2ncnc3c2nc(-c2ccc(OCCCCCC(=O)O)cc2Cl)n3Cc2cccc(Cl)c2)CC1` [Example T437, 6-(3-chloro-4-(9-(3-chlorobenzyl)-6-(1-methylcyclopropoxy)-9H-purin-8-yl)phenoxy)hexanoic acid], the IC50 in the assay with DLD-1 cells (DLD-1, proliferation, luminescence, second Prolif column (c6), taken as DLD-1 BRCA2 wt control, read-out: POLQ PD Prolif Lumin (converted)) is above 10000 nM; with DLD-1 BRCA2−/− cells (DLD-1, proliferation, luminescence, taken as DLD-1 BRCA2-/-, read-out: POLQ PD Prolif Lumin (converted)), 63.1 nM.

Take `Cc1ccnc(Cn2c(-c3ccc(CC(=O)N4C[C@@H]5C[C@H]4CN5)cc3Cl)nc3c(OC4(C)CC4)ncnc32)c1` [Example T559, 1-((1S,4S)-2,5-diazabicyclo[2.2.1]heptan-2-yl)-2-(3-chloro-4-(6-(1-methylcyclopropoxy)-9-((4-methylpyridin-2-yl)methyl)-9H-purin-8-yl)phenyl)ethan-1-one]: the IC50 was above 10000 nM in the assay with DLD-1 cells (setting [3]) and above 6310 nM in the assay on DLD-1 BRCA2−/− cells (setting [4]).

As for `CN1CCN(CCOc2ccc(-c3nc4c(OC5(C)CC5)ncnc4n3Cc3ccccc3)c(F)c2)CC1` [Example H2, 9-benzyl-8-(2-fluoro-4-(2-(4-methylpiperazin-1-yl)ethoxy)phenyl)-6-(1-methylcyclopropoxy)-9H-purine], the values for the IC50 in the assay with DLD-1 cells (setting [5]) and in the assay on DLD-1 BRCA2−/− cells (setting [6]) were 3160 nM and 126 nM, respectively.
